In patent publication US9694016B2 (Novartis AG, priority 2013, dated 2017):
Like-named read-outs stand apart in the source and are kept apart here. Each block holds one molecule with its values, some of them ahead of it.

Molecular target: b-Raf (V600E) (Homo sapiens (Human), UniProt P15056, V600E)
Settings: read-out: b-Raf IC-50, AlphaScreen
[1] = 60 min pre-incubation, 3 hours reaction
[2] = 60 min pre-incubation, reaction 3 hours at room temperature

Chain of b-Raf (V600E) (P15056 whole entry V600E): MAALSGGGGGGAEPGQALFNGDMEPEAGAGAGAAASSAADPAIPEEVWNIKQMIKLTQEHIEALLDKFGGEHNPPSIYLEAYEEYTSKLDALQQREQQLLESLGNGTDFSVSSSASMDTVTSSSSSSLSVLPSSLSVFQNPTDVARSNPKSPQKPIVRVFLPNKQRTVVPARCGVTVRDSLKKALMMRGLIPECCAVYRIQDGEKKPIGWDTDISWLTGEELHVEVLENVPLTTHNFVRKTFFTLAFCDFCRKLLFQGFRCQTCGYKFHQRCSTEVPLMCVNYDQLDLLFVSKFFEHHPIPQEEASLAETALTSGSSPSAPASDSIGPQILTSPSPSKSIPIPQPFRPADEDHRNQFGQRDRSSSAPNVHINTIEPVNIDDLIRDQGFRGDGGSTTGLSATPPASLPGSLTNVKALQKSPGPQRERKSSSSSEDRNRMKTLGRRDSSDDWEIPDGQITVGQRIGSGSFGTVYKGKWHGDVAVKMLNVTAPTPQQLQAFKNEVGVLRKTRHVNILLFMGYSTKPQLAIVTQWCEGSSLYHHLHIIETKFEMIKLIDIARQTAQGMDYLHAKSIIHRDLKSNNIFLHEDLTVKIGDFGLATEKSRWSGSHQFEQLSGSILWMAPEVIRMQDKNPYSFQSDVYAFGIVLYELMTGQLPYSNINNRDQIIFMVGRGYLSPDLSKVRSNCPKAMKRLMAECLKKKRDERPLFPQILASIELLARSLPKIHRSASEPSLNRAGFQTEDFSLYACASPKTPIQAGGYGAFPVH

SMILES: COc1nnc(-c2cc(NC(=O)c3ccnc(C4CC4)c3)ccc2C)cc1N1CCOCC1 [Example 550, 2-cyclopropyl-N-(3-(6-methoxy-5-morpholinopyridazin-3-yl)-4-methylphenyl)isonicotinamide]
IC50 [1]: 1.2 nM

SMILES: Cc1ccc(NC(=O)c2cnnc(C(C)(C)C#N)c2)cc1-c1cc(N2CCOCC2)c(OC2CCOCC2)nn1 [Example 583, 6-(2-cyanopropan-2-yl)-N-(4-methyl-3-(5-morpholino-6-((tetrahydro-2H-pyran-4-yl)oxy)pyridazin-3-yl)phenyl)pyridazine-4-carboxamide]
IC50 [1]: 1.3 nM

SMILES: Cc1ncc(NC(=O)c2cccc(C(F)(F)F)c2)cc1-c1cc(N2CCOCC2)c2nccn2n1 [Example 867, N-(6-methyl-5-(8-morpholinoimidazo[1,2-b]pyridazin-6-yl)pyridin-3-yl)-3-(trifluoromethyl)benzamide]
IC50 [2]: 1.4 nM

SMILES: Cc1ncc(NC(=O)c2cccc(C(F)(F)F)c2)cc1-c1cnc(OC2CN(C)C2)c(N2CCOCC2)c1 [Example 321, N-(2-methyl-6′-((1-methylazetidin-3-yl)oxy)-5′-morpholino-[3,3′-bipyridin]-5-yl)-3-(trifluoromethyl)benzamide]
IC50 (Table 2, 3 hours reaction): 24.8 nM

SMILES: CCOc1nnc(-c2cc(NC(=O)c3ccnc(C(C)(F)F)c3)ccc2C)cc1N1CCOCC1 [Example 565, 2-(1,1-difluoroethyl)-N-(3-(6-ethoxy-5-morpholinopyridazin-3-yl)-4-methylphenyl)isonicotinamide]
IC50 [1]: 1.3 nM

SMILES: Cc1ccc(NC(=O)c2ccnc(C(C)(C)C#N)c2)cc1-c1cc(N2CCOCC2)c(OCCO)nn1 [Example 591, 2-(2-cyanopropan-2-yl)-N-(3-(6-(2-hydroxyethoxy)-5-morpholinopyridazin-3-yl)-4-methylphenyl)isonicotinamide]
IC50 [1]: 2.1 nM

SMILES: CCOc1nnc(-c2cc(NC(=O)c3ccnc(C(C)(C)O)c3)ccc2C)cc1N1CCOCC1 [Example 569, N-(3-(6-ethoxy-5-morpholinopyridazin-3-yl)-4-methylphenyl)-2-(2-hydroxypropan-2-yl)isonicotinamide]
IC50 [1]: 2.8 nM

SMILES: Cc1ccc(NC(=O)c2ccnc(C(C)(C)C#N)c2)cc1-c1cc(N2CCOCC2)nc(N(C)C)n1 [Example 755, 2-(2-cyanopropan-2-yl)-N-(3-(2-(dimethylamino)-6-morpholinopyrimidin-4-yl)-4-methylphenyl)isonicotinamide]
IC50 [1]: 17.8 nM

SMILES: Cc1ncc(NC(=O)c2ccnc(C(C)(C)C#N)c2)cc1-c1cc(N2CCOCC2)c(=O)n(C)c1 [Example 141, 2-(2-cyanopropan-2-yl)-N-(1′,2-dimethyl-5′-morpholino-6′-oxo-1′,6′-dihydro-[3,3′-bipyridin]-5-yl)isonicotinamide]
IC50 (Table 2, 3 hours reaction): 47.5 nM

SMILES: Cc1ccc(NC(=O)c2ccnc(S(C)(=O)=O)c2)cc1-c1cc(N2CCOCC2)c2nccn2c1 [Example 851]
IC50 [2]: 0.9 nM

SMILES: Cc1ccc(NC(=O)c2cc(CN)cc(C(F)(F)F)c2)cc1-c1cc(N2CCOCC2)c(=O)n(C)c1 [Example 470, 3-(aminomethyl)-N-(4-methyl-3-(1-methyl-5-morpholino-6-oxo-1,6-dihydropyridin-3-yl)phenyl)-5-(trifluoromethyl)benzamide]
IC50 [1]: 4.5 nM

SMILES: Cc1ccc(NC(=O)c2cnnc(C3(C#N)CC3)c2)cc1-c1cc(N2CCOCC2)c(=O)n(C)c1 [Example 902, 6-(1-cyanocyclopropyl)-N-(4-methyl-3-(1-methyl-5-morpholino-6-oxo-1,6-dihydropyridin-3-yl)phenyl)pyridazine-4-carboxamide]
IC50 [2]: 3.37 nM

SMILES: Cc1ccc(NC(=O)c2ccnc(S(C)(=O)=O)c2)cc1-c1ccnc(N2CCOCC2)c1 [Example 73, N-(4-methyl-3-(2-morpholinopyridin-4-yl)phenyl)-2-(methylsulfonyl)isonicotinamide]
IC50 (Table 2, 3 hours reaction): 1.9 nM

SMILES: Cc1ncc(C(=O)Nc2cccc(C(F)F)c2)cc1-c1cc(N2CCOCC2)c(=O)n(C)c1 [Example 445, N-(3-(difluoromethyl)phenyl)-1′,2-dimethyl-5′-morpholino-6′-oxo-1′,6′-dihydro-[3,3′-bipyridine]-5-carboxamide]
IC50 [1]: 12 nM

SMILES: Cc1ncc(NC(=O)c2cccc(C(F)(F)F)c2)cc1-c1cc(N2CCOCC2)c2nccn2c1 [Example 883, N-(6-methyl-5-(8-morpholinoimidazo[1,2-a]pyridin-6-yl)pyridin-3-yl)-3-(trifluoromethyl)benzamide]
IC50 [2]: 1.7 nM

SMILES: Cc1ncc(NC(=O)c2ccnc(C(C)(C)C#N)c2)cc1-c1cncc(N2CCOCC2)n1 [Example 532, 2-(2-cyanopropan-2-yl)-N-(6-methyl-5-(6-morpholinopyrazin-2-yl)pyridin-3-yl)isonicotinamide]
IC50 [1]: 7.7 nM

SMILES: CCOc1nnc(-c2cc(NC(=O)c3ccnc(C(C)(C)C#N)c3)cnc2C)cc1N1CCOC[C@H]1C [Example 623, (R)-2-(2-cyanopropan-2-yl)-N-(5-(6-ethoxy-5-(3-methylmorpholino)pyridazin-3-yl)-6-methylpyridin-3-yl)isonicotinamide]
IC50 [1]: 56.7 nM

SMILES: Cc1ncc(NC(=O)c2cccc(C(F)(F)F)c2)cc1-c1cc(N2CCOCC2)nc(C(C)(C)O)n1 [Example 788, N-(5-(2-(2-hydroxypropan-2-yl)-6-morpholinopyrimidin-4-yl)-6-methylpyridin-3-yl)-3-(trifluoromethyl)benzamide]
IC50 [1]: 200 nM

SMILES: CCNc1nc(-c2cc(NC(=O)c3cccc(C(F)(F)F)c3)cnc2C)cc(N2CCOCC2)n1 [Example 716, N-(5-(2-(ethylamino)-6-morpholinopyrimidin-4-yl)-6-methylpyridin-3-yl)-3-(trifluoromethyl)benzamide]
IC50 [1]: 1.3 nM

SMILES: Cc1ccc(NC(=O)c2ccnc(S(C)(=O)=O)c2)cc1-c1cc(N2CCOCC2)n(C)c(=O)c1 [Example 474, N-(4-methyl-3-(1-methyl-6-morpholino-2-oxo-1,2-dihydropyridin-4-yl)phenyl)-2-(methylsulfonyl)isonicotinamide]
IC50 [1]: 2.2 nM

SMILES: CCOc1ncc(-c2cc(C(=O)Nc3ccnc(C(F)(F)F)c3)ccc2C)cc1N1CCOCC1 [Example 306, 3-(6-ethoxy-5-morpholinopyridin-3-yl)-4-methyl-N-(2-(trifluoromethyl)pyridin-4-yl)benzamide]
IC50 (Table 2, 3 hours reaction): 1.1 nM

SMILES: Cc1ncc(NC(=O)c2cccc(C(F)(F)F)c2)cc1-c1cnc(OC2CCOCC2)c(N2CCOCC2)c1 [Example 131, N-(2-methyl-5′-morpholino-6′-((tetrahydro-2H-pyran-4-yl)oxy)-[3,3′-bipyridin]-5-yl)-3-(trifluoromethyl)benzamide]
IC50 (Table 2, 3 hours reaction): 1.8 nM

SMILES: Cc1ncc(NC(=O)c2ccnc(C(C)(C)C#N)c2)cc1-c1cc(N2CCOCC2)nc(N[C@H](C)CO)n1 [Example 747, (R)-2-(2-cyanopropan-2-yl)-N-(5-(2-((1-hydroxypropan-2-yl)amino)-6-morpholinopyrimidin-4-yl)-6-methylpyridin-3-yl)isonicotinamide]
IC50 [1]: 19 nM

Other lines, results leading:

IC50 [2]: 0.65 nM
SMILES: Cc1ccc(NC(=O)c2cccc(C(F)(F)F)c2)cc1-c1cc(N2CCOCC2)nc(N2C[C@H](O)CC2=O)c1 [Example 1064, (R)—N-(3-(2-(4-hydroxy-2-oxopyrrolidin-1-yl)-6-morpholinopyridin-4-yl)-4-methylphenyl)-3-(trifluoromethyl)benzamide]

IC50 [2]: 2.16 nM
SMILES: Cc1ncc(NC(=O)c2ccnc(C(F)F)c2)cc1-c1cc(N2CCOCC2)c(OC(C)C)nn1 [Example 913, 2-(difluoromethyl)-N-(5-(6-isopropoxy-5-morpholinopyridazin-3-yl)-6-methylpyridin-3-yl)isonicotinamide]

IC50 [2]: 0.98 nM
SMILES: Cc1ccc(NC(=O)c2cccc(C(F)(F)F)c2)cc1-c1cc(NCC(C)(C)O)nc(N2CCOCC2)c1 [Example 1062, N-(3-(2-((2-hydroxy-2-methylpropyl)amino)-6-morpholinopyridin-4-yl)-4-methylphenyl)-3-(trifluoromethyl)benzamide]

IC50 [2]: 1.17 nM
SMILES: Cc1ncc(NC(=O)c2cccc(C(F)(F)F)c2)cc1-c1cc(N2CCOCC2)c(OCC(F)F)nn1 [Example 918, N-(5-(6-(2,2-difluoroethoxy)-5-morpholinopyridazin-3-yl)-6-methylpyridin-3-yl)-3-(trifluoromethyl)benzamide]

IC50 [2]: 6.7 nM
SMILES: Cc1ncc(NC(=O)c2ccnc(C(F)F)c2)cc1-c1cc(N2CCOCC2)nc(N2CC(C)(O)C2)c1 [Example 1103, 2-(difluoromethyl)-N-(2′-(3-hydroxy-3-methylazetidin-1-yl)-2-methyl-6′-morpholino-[3,4′-bipyridin]-5-yl)isonicotinamide]

IC50 [2]: 1.5 nM
SMILES: Cc1ccc(NC(=O)c2ccnc(C(C)(C)C#N)c2)cc1-c1cc(OCCO)nc(N2CCOCC2)c1 [Example 1161, 2-(2-cyanopropan-2-yl)-N-(3-(2-(2-hydroxyethoxy)-6-morpholinopyridin-4-yl)-4-methylphenyl)isonicotinamide]

IC50 [2]: 4.11 nM
SMILES: Cc1ncc(NC(=O)c2cccc(C(F)(F)F)c2)cc1-c1cc(N2CCOCC2)c(S(C)(=O)=O)nn1 [Example 919, N-(6-methyl-5-(6-(methylsulfonyl)-5-morpholinopyridazin-3-yl)pyridin-3-yl)-3-(trifluoromethyl)benzamide]

IC50 [2]: 11.9 nM
SMILES: CCOc1cc(-c2cc(NC(=O)c3ccnc(C(C)(C)O)c3)cnc2C)cc(N2CCOCC2)n1 [Example 1148, N-(2′-ethoxy-2-methyl-6′-morpholino-[3,4′-bipyridin]-5-yl)-2-(2-hydroxypropan-2-yl)isonicotinamide]

IC50 [2]: 0.66 nM
SMILES: Cc1ccc(NC(=O)c2cnnc(C(F)(F)F)c2)cc1-c1cc(OC2CCOCC2)nc(N2CCOCC2)c1 [Example 1155, N-(4-methyl-3-(2-morpholino-6-((tetrahydro-2H-pyran-4-yl)oxy)pyridin-4-yl)phenyl)-6-(trifluoromethyl)pyridazine-4-carboxamide]

IC50 [2]: 1.83 nM
SMILES: CCOc1ncc(-c2cc(C(=O)Nc3cc(C(F)(F)F)ncc3F)ccc2C)cc1N1CCOCC1 [Example 961, 3-(6-ethoxy-5-morpholinopyridin-3-yl)-N-(5-fluoro-2-(trifluoromethyl)pyridin-4-yl)-4-methylbenzamide]

IC50 [2]: 0.91 nM
SMILES: Cc1ccc(NC(=O)c2ccnc(C3CC3)c2)cc1-c1cnc(OCCO)c(N2CCOCC2)c1 [Example 999, 2-cyclopropyl-N-(3-(6-(2-hydroxyethoxy)-5-morpholinopyridin-3-yl)-4-methylphenyl)isonicotinamide]
